Reference: ChEMBL document CHEMBL3885861, “Open TG-GATES”

Organism: Rattus norvegicus
Assay: Open TG-GATES - Regimen: Single
Type: toxicity, organism-based, Sprague-Dawley
Design: regimen Single, gender Male, age 6 weeks
Conditions: in vivo, po, route gavage; for Bas / Eos / Fbg / Hb / Lym / MCH / MCHC / MCV / Mono / Neu / RBC / Ret / WBC / APTT: tissue Blood; for KIDNEY_L / KIDNEY_R / KIDNEY_TOTAL: tissue Kidney; for LIVER: tissue Liver; for ALP / ALT / AST / CRE / Ca / Cl / DBIL / GLC / IP / K / LDH / Na / PL / RALB / TBIL / TC / TG / TP / gamma-GTP: tissue Plasma
[1] = 75 mg/kg, 3 h, dose level Middle
[2] = 75 mg/kg, 6 h, dose level Middle
[3] = 75 mg/kg, 9 h, dose level Middle
[4] = 75 mg/kg, 24 h, dose level Middle
[5] = 250 mg/kg, 3 h, dose level High
[6] = 250 mg/kg, 6 h, dose level High
[7] = 250 mg/kg, 9 h, dose level High
[8] = 250 mg/kg, 24 h, dose level High

## O=C1CN(/N=C/c2ccc(-c3ccc([N+](=O)[O-])cc3)o2)C(O)=N1 [DANTROLENE]
[1]
  Bas: 0%
  Eos: 1%
  Fbg: 217.6 mg/dL
  Hb: 14.2 g/dL
  Lym: 70.4%
  MCH: 22.7 pg
  MCHC: 34.1%
  MCV: 66.7 fL
  Mono: 8%
  Neu: 20.6%
  RBC: 623.6 x10_4/ul
  Ret: 10.8%
  WBC: 82.6 x10_2/uL
  KIDNEY_L: 0.9 g
  KIDNEY_R: 1 g
  KIDNEY_TOTAL: 1.9 g
  LIVER: 9.5 g
  ALP: 747.2 IU/L
  ALT: 32.4 IU/L
  AST: 60.2 IU/L
  CRE: 0.5 mg/dL
  Ca: 10.3 mg/dL
  Cl: 101.4 meq/L
  DBIL: 0.06 mg/dL
  GLC: 213.4 mg/dL
  IP: 11.1 mg/dL
  K: 4.7 meq/L
  LDH: 105.8 IU/L
  Na: 138 meq/L
  PL: 148.2 mg/dL
  RALB: 3.9 g/dL
  TBIL: 0.3 mg/dL
  TC: 85.4 mg/dL
  TG: 41.4 mg/dL
  TP: 5.7 g/dL
  gamma-GTP: 1.8 IU/L
[2]
  TERMINAL_BW: 191.2 g
  APTT: 17 s
  Bas: 0%
  Eos: 1%
  Fbg: 220.6 mg/dL
  Hb: 14.6 g/dL
  Lym: 73.2%
  MCH: 22.4 pg
  MCHC: 34.3%
  MCV: 65.2 fL
  Mono: 8.6%
  Neu: 17.2%
  RBC: 650.4 x10_4/ul
  Ret: 12.7%
  WBC: 82.9 x10_2/uL
  KIDNEY_L: 0.9 g
  KIDNEY_R: 0.9 g
  KIDNEY_TOTAL: 1.9 g
  LIVER: 9 g
  ALP: 749.6 IU/L
  ALT: 34 IU/L
  AST: 64.2 IU/L
  CRE: 0.5 mg/dL
  Ca: 10.3 mg/dL
  Cl: 102.8 meq/L
  DBIL: 0.06 mg/dL
  GLC: 211.4 mg/dL
  IP: 9.6 mg/dL
  K: 4.6 meq/L
  LDH: 102 IU/L
  Na: 138.8 meq/L
  PL: 141.8 mg/dL
  RALB: 3.8 g/dL
  TBIL: 0.3 mg/dL
  TC: 80.4 mg/dL
  TG: 30.4 mg/dL
  TP: 5.6 g/dL
  gamma-GTP: 1.6 IU/L
[3]
  TERMINAL_BW: 191.7 g
  APTT: 16.9 s
  Bas: 0%
  Eos: 1%
  Fbg: 217.8 mg/dL
  Hb: 14.3 g/dL
  Lym: 78.2%
  MCH: 21.6 pg
  MCHC: 32.9%
  MCV: 65.6 fL
  Mono: 7.4%
  RBC: 663.8 x10_4/ul
  Ret: 9.8%
  WBC: 74.6 x10_2/uL
  KIDNEY_L: 0.9 g
  KIDNEY_R: 0.9 g
  KIDNEY_TOTAL: 1.8 g
  LIVER: 8.2 g
  ALP: 710.6 IU/L
  ALT: 23.2 IU/L
  AST: 53 IU/L
  CRE: 0.5 mg/dL
  Ca: 10.4 mg/dL
  Cl: 105.2 meq/L
  DBIL: 0.054 mg/dL
  GLC: 205.8 mg/dL
  IP: 9.5 mg/dL
  K: 5.2 meq/L
  LDH: 103.2 IU/L
  Na: 138.2 meq/L
  PL: 148 mg/dL
  RALB: 3.8 g/dL
  TBIL: 0.4 mg/dL
  TC: 87.4 mg/dL
  TG: 26.4 mg/dL
  TP: 5.5 g/dL
  gamma-GTP: 1.6 IU/L
[4]
  TERMINAL_BW: 190.1 g
  APTT: 16.9 s
  Bas: 0%
  Eos: 0.8%
  Fbg: 202.2 mg/dL
  Hb: 13.8 g/dL
  Lym: 86.2%
  MCH: 21.9 pg
  MCHC: 33.6%
  MCV: 65.3 fL
  Mono: 7.2%
  Neu: 6.2%
  RBC: 631 x10_4/ul
  Ret: 11.5%
  WBC: 86.1 x10_2/uL
  KIDNEY_L: 0.9 g
  KIDNEY_R: 0.9 g
  KIDNEY_TOTAL: 1.9 g
  LIVER: 9 g
  ALP: 1061.6 IU/L
  ALT: 32.8 IU/L
  AST: 56.2 IU/L
  CRE: 0.5 mg/dL
  Ca: 10.9 mg/dL
  Cl: 105 meq/L
  DBIL: 0.018 mg/dL
  GLC: 189 mg/dL
  IP: 7.7 mg/dL
  K: 4.3 meq/L
  LDH: 104.6 IU/L
  Na: 141.4 meq/L
  PL: 147.8 mg/dL
  RALB: 3.9 g/dL
  TBIL: 0.4 mg/dL
  TC: 83.6 mg/dL
  TG: 73.2 mg/dL
  TP: 5.7 g/dL
  gamma-GTP: 1 IU/L
[5]
  TERMINAL_BW: 193.5 g
  APTT: 16.6 s
  Bas: 0%
  Eos: 1.4%
  Fbg: 218.2 mg/dL
  Hb: 14.5 g/dL
  Lym: 76.6%
  MCH: 22 pg
  MCHC: 34.2%
  MCV: 64.3 fL
  Mono: 6.8%
  Neu: 15%
  RBC: 658 x10_4/ul
  Ret: 11.7%
  WBC: 67.2 x10_2/uL
  KIDNEY_L: 0.9 g
  KIDNEY_R: 0.9 g
  KIDNEY_TOTAL: 1.9 g
  LIVER: 9.3 g
  ALP: 867.8 IU/L
  ALT: 35.6 IU/L
  AST: 68.8 IU/L
  CRE: 0.5 mg/dL
  Ca: 10.4 mg/dL
  Cl: 100.6 meq/L
  DBIL: 0.056 mg/dL
  GLC: 223.4 mg/dL
  IP: 10.3 mg/dL
  K: 4.5 meq/L
  LDH: 100.4 IU/L
  Na: 138.4 meq/L
  PL: 142 mg/dL
  RALB: 3.9 g/dL
  TBIL: 0.3 mg/dL
  TC: 81 mg/dL
  TG: 41.8 mg/dL
  TP: 5.7 g/dL
  gamma-GTP: 2.2 IU/L
[6]
  TERMINAL_BW: 189.5 g
  APTT: 17.8 s
  Bas: 0%
  Eos: 0.8%
  Fbg: 212.2 mg/dL
  Hb: 14.7 g/dL
  Lym: 68.4%
  MCH: 22.4 pg
  MCHC: 34.4%
  MCV: 65.2 fL
  Mono: 6.2%
  Neu: 24.6%
  RBC: 656.8 x10_4/ul
  Ret: 12.9%
  WBC: 66.9 x10_2/uL
  KIDNEY_L: 0.9 g
  KIDNEY_R: 0.9 g
  KIDNEY_TOTAL: 1.8 g
  LIVER: 8.3 g
  ALP: 725.6 IU/L
  ALT: 29.6 IU/L
  AST: 58.6 IU/L
  CRE: 0.5 mg/dL
  Ca: 10.3 mg/dL
  Cl: 102.4 meq/L
  DBIL: 0.086 mg/dL
  GLC: 219.6 mg/dL
  IP: 9 mg/dL
  K: 4.4 meq/L
  LDH: 110.6 IU/L
  Na: 137.6 meq/L
  PL: 133.4 mg/dL
  RALB: 3.9 g/dL
  TBIL: 0.3 mg/dL
  TC: 79.2 mg/dL
  TG: 19.2 mg/dL
  TP: 5.6 g/dL
  gamma-GTP: 1.2 IU/L
[7]
  TERMINAL_BW: 185.8 g
  APTT: 19.1 s
  Bas: 0%
  Eos: 0.2%
  Fbg: 216.8 mg/dL
  Hb: 14.5 g/dL
  Lym: 77.8%
  MCH: 21.6 pg
  MCHC: 32.9%
  MCV: 65.6 fL
  Mono: 5.8%
  Neu: 15.8%
  RBC: 669.4 x10_4/ul
  Ret: 12.3%
  WBC: 55.5 x10_2/uL
  KIDNEY_L: 0.9 g
  KIDNEY_R: 0.9 g
  KIDNEY_TOTAL: 1.8 g
  LIVER: 8 g
  ALP: 664.6 IU/L
  ALT: 21.4 IU/L
  AST: 50.4 IU/L
  CRE: 0.6 mg/dL
  Ca: 10.5 mg/dL
  Cl: 103.6 meq/L
  DBIL: 0.064 mg/dL
  GLC: 212.2 mg/dL
  IP: 8.9 mg/dL
  K: 4.9 meq/L
  LDH: 89.8 IU/L
  Na: 136.8 meq/L
  PL: 144.2 mg/dL
  RALB: 3.8 g/dL
  TBIL: 0.4 mg/dL
  TC: 90.2 mg/dL
  TG: 17.2 mg/dL
  TP: 5.7 g/dL
  gamma-GTP: 1.4 IU/L
[8]
  TERMINAL_BW: 185 g
  APTT: 17.5 s
  Bas: 0%
  Eos: 0.8%
  Fbg: 207 mg/dL
  Hb: 14.7 g/dL
  Lym: 87.6%
  MCH: 21.8 pg
  MCHC: 33.4%
  MCV: 65.3 fL
  Mono: 5.8%
  Neu: 5.8%
  RBC: 675 x10_4/ul
  Ret: 13%
  WBC: 72.5 x10_2/uL
  KIDNEY_L: 0.9 g
  KIDNEY_R: 0.9 g
  KIDNEY_TOTAL: 1.9 g
  LIVER: 8.6 g
  ALP: 722.6 IU/L
  ALT: 24.6 IU/L
  AST: 46.2 IU/L
  CRE: 0.5 mg/dL
  Ca: 11.1 mg/dL
  Cl: 103.4 meq/L
  DBIL: 0.022 mg/dL
  GLC: 191.2 mg/dL
  IP: 9.1 mg/dL
  K: 4.8 meq/L
  LDH: 102.8 IU/L
  Na: 140.6 meq/L
  PL: 136 mg/dL
  RALB: 4 g/dL
  TBIL: 0.3 mg/dL
  TC: 79.6 mg/dL
  TG: 21.8 mg/dL
  TP: 5.7 g/dL
  gamma-GTP: 1.6 IU/L
